The structures appear in SMILES notation. pEC50: −log10 of the molar value.

One assay has as its system mD4-VV surrogate virus. Description: microbe, parasite or virus in culture. The class given is cell-based, mD4/vaccinia hybrid virus.
Conditions: not given
As for `CCC(C(=O)Nc1sc(C(N)=O)c(C)c1C(=O)OC)c1cccc(OC)c1` (stereo not drawn) [Compound 96, Methyl 2-(2-(3-methoxyphenyl)butanamido)-5-carbamoyl-4-methylthiophene-3-carboxylate], the “% @ 25 uM (mD4)” value is recorded as 56% @ 25 uM. As to `COC(=O)c1c(NC(=O)N2CCN(c3ccccn3)CC2)sc(C(N)=O)c1C` [Compound 116, Methyl 2-(4-(pyridin-2-yl)piperazine-1-carboxamido)-5-carbamoyl-4-methylthiophene-3-carboxylate], the “% @ 25 uM (mD4)” value is on record as 30% @ 25 uM. Consider `O=C(NCc1ccccc1)c1nnsc1NC(=O)N1CCN(c2ccccc2)CC1` [Compound 123, 4-Phenyl-piperazine-1-carboxylic acid (4-benzylcarbamoyl-[1,2,3]thiadiazol-5-yl)-amide], for which the “% @ 25 uM (mD4)” value is 44% @ 25 uM. The same measure, in the same setting: for `CCOC(=O)c1ncsc1NC(=O)C(CC)c1ccccc1` (stereo not drawn) [Compound 165, Ethyl 5-(2-phenylbutanamido)thiazole-4-carboxylate] the value was 30.6% @ 25 uM.

The same assay, now with this note: Hybrid virus, BSC-1, read-out: mD4 EC50.
Regarding `CCC(C(=O)Nc1snnc1C(=O)NCc1ccc(Cl)cc1)c1ccccc1` (stereo not drawn) [Compound 134, 5-(2-Phenyl-butyrylamino)-[1,2,3]thiadiazole-4-carboxylic acid 4-chloro-benzylamide], the pEC50 is 4.94. Still for that read-out and setting: for `CCC(C(=O)Nc1sc(C(N)=O)c(C)c1C(=O)OC)c1ccc(Cl)cc1` (stereo not drawn) [Compound 191, Methyl 5-carbamoyl-2-(2-(4-chlorophenyl)butanamido)-4-methylthiophene-3-carboxylate] the value was 4.94; for `O=C(CCCc1ccccn1)Nc1snnc1C(=O)NCc1ccc(Cl)cc1` [Compound 175, 5-(4-(Pyridin-2-yl)butanamido)-N-(4-chlorobenzyl)-1,2,3-thiadiazole-4-carboxamide], 4.81. On the same count and under the same terms, with `CCC(C(=O)Nc1sc(C(N)=O)c(C)c1C(=O)OC)c1cc(F)cc(F)c1` (stereo not drawn) [Compound 195, Methyl 2-(2-(3,5-difluorophenyl)butanamido)-5-carbamoyl-4-methylthiophene-3-carboxylate] the figure was 4.59; with `CCC(C(=O)Nc1snnc1C(=O)NCc1ccccc1)c1ccccc1` (stereo not drawn) [Compound 135, 5-(2-Phenyl-butyrylamino)-[1,2,3]thiadiazole-4-carboxylic acid benzylamide], 4.73; with `O=C(Nc1snnc1C(=O)NCc1ccc(Cl)cc1)Oc1ccccc1` [Compound 132, [4-(4-Chloro-benzylcarbamoyl)-[1,2,3]thiadiazol-5-yl]-carbamic acid phenyl ester], 4.79.

Regarding `CCC(C(=O)Nc1sc(C(N)=O)c(C)c1C(=O)NCc1ccc(Cl)cc1)c1ccccc1` (stereo not drawn) [Compound 115, 2-(2-Phenylbutanamido)-N3-(4-chlorobenzyl)-4-methylthiophene-3,5-dicarboxamide], the pEC50 was 4.96.

Take `O=C(NCc1ccccc1)c1ccsc1NC(=O)N1CCN(c2ccccn2)CC1` [Compound 130, N-(3-(Benzylcarbamoyl)thiophen-2-yl)-4-(pyridin-2-yl)piperazine-1-carboxamide]: the pEC50 is 4.48. `CCC(C(=O)Nc1sc(C(=O)NCCc2cccnc2)c(C)c1C(=O)OC)c1ccc(F)cc1` (stereo not drawn) [Compound 187, methyl 2-(2-(4-fluorophenyl)butanamido)-4-methyl-5-((2-(pyridin-3-yl)ethyl)carbamoyl)thiophene-3-carboxylate]: the pEC50 is 4.86.

Take `CCC(C(=O)Nc1sc(C(=O)NCCCNC(=O)OC(C)(C)C)c(C)c1C(=O)OC)c1ccc(F)cc1` (stereo not drawn) [Compound 202, Methyl 5-((3-((tert-butoxycarbonyl)amino)propyl)carbamoyl)-2-(2-(4-fluorophenyl)butanamido)-4-methylthiophene-3-carboxylate]: the pEC50 is less than 4.30. On the same count and under the same terms, for `CCC(C(=O)Nc1sc(C(N)=O)c(C)c1C(=O)OC)c1ccccc1OC` (stereo not drawn) [Compound 95, Methyl 2-(2-(2-methoxyphenyl)butanamido)-5-carbamoyl-4-methylthiophene-3-carboxylate] the value was 4.67.

Regarding `CCC(C(=O)Nc1snnc1-c1ccccc1)c1ccccc1` (stereo not drawn) [Compound 155, 2-Phenyl-N-(4-phenyl-[1,2,3]thiadiazol-5-yl)-butyramide], the pEC50 was 4.79. Regarding `CCC(C(=O)Nc1sc(C(=O)N2CCNCC2)c(C)c1C(=O)OC)c1ccc(F)cc1` (stereo not drawn) [Compound 201, Methyl 2-[2-(4-fluorophenyl)butanamido]-4-methyl-5-(piperazine-1-carbonyl)thiophene-3-carboxylate], the pEC50 is less than 4.60. On to `CCC(C(=O)NC(=O)c1sc(N)c(C(=O)OC)c1C)c1ccc(F)cc1` (stereo not drawn) [Compound 174, Methyl 5-(2-(4-fluorophenyl)butanoylcarbamoyl)-2-amino-4-methylthiophene-3-carboxylate], for which the pEC50 is 4.69. Same read-out and setting: with `CCC(C(=O)Nc1sc(C(N)=O)c(C)c1C(=O)OC)c1ccc2c(c1)OCO2` (stereo not drawn) [Compound 193, Methyl 2-(2-(benzo[d][1,3]dioxol-5-yl)butanamido)-5-carbamoyl-4-methylthiophene-3-carboxylate] the figure was less than 4.30. Still for that read-out and setting: with `CCC(C(=O)Nc1sc(C(=O)NC(C)c2ccncc2)c(C)c1C(=O)OC)c1ccc(F)cc1` (stereo not drawn) [Compound 186, methyl 2-(2-(4-fluorophenyl)butanamido)-4-methyl-5-((1-(pyridin-4-yl)ethyl)carbamoyl)thiophene-3-carboxylate] the figure was 4.70; with `CCC(C(=O)Nc1sc(C(N)=O)c(C)c1C(=O)OC)c1ccc(C#N)cc1` (stereo not drawn) [Compound 197, Methyl 2-(2-(4-cyanophenyl)butanamido)-5-carbamoyl-4-methylthiophene-3-carboxylate], 4.38. As for `CCC(C(=O)Nc1sc(C(N)=O)c(C)c1C(=O)OC)c1ccc(C(F)(F)F)cc1` (stereo not drawn) [Compound 190, methyl 5-carbamoyl-4-methyl-2-(2-(4-(trifluoromethyl)phenyl)butanamido)thiophene-3-carboxylate], the negative logarithm of the EC50 (pEC50) was 5.32.

For `CCC(C(=O)Nc1sc(C(=O)NCCCN)c(C)c1C(=O)OC)c1ccc(F)cc1` (stereo not drawn) [Compound 203, Methyl 5-(3-aminopropylcarbamoyl)-2-(2-(4-fluorophenyl)butanamido)-4-methylthiophene-3-carboxylate], the pEC50 is 4.70.

With `CCC(C(=O)Nc1sc(C(N)=O)c(C)c1C(=O)OC)c1ccc(C)cc1` (stereo not drawn) [Compound 188, Methyl 5-carbamoyl-4-methyl-2-(2-(p-tolyl)butanamido)thiophene-3-carboxylate], the negative logarithm of the EC50 (pEC50) was 4.19. For `CCOC(=O)c1ncsc1NC(=O)N1CCN(c2ccccn2)CC1` [Compound 127, Ethyl 5-(4-(pyridin-2-yl)piperazine-1-carboxamido)thiazole-4-carboxylate], the pEC50 is 4.53. As for `CCC(C(=O)Nc1sc(C(N)=O)c(C)c1C(=O)OC)c1ccccc1F` (stereo not drawn) [Compound 189, Methyl 5-carbamoyl-2-(2-(2-fluorophenyl)butanamido)-4-methylthiophene-3-carboxylate], the pEC50 is 4.82. The same measure, in the same setting: for `CCC(C(=O)Nc1sc(C(=O)OC(C)(C)C)c(C)c1C(=O)OC)c1ccc2c(c1)OCO2` (stereo not drawn) [Compound 192, 2-tert-butyl 4-methyl 5-(2-(benzo[d][1,3]dioxol-5-yl)butanamido)-3-methylthiophene-2,4-dicarboxylate] the value was less than 4.30.

Usually pEC50 stands for the negative decadic logarithm of the EC50, by convention in mol/L.
